Experimental data from PubChem BioAssay (NCI).
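Step 1: Grow cells in 96-well plates. Step 2: Expose to compound for 48 hours at 5 concentrations. Step 3: Interpolate endpoints linearly; if unreached, use highest concentration. At the GI50, growth is halved. At the TGI there is no net growth.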

Experiments:
Assay in all cases: DTP human tumour cell line panel, 48 h
[1] = test system: CAKI-1 renal
[2] = test system: SNB-19 CNS
[3] = test system: SK-MEL-2 melanoma
[4] = test system: NCI-H522 lung
[5] = test system: SF-539 CNS
[6] = test system: HOP-62 NSCLC
[7] = test system: MDA-MB-435
[8] = test system: SK-OV-3 ovarian
[9] = test system: UO-31 renal
[10] = test system: MCF7 breast
[11] = test system: NCI/ADR-RES ovarian
[12] = test system: MDA-MB-231 breast
[13] = test system: SF-295 CNS
[14] = test system: DU-145 prostate
[15] = test system: SNB-75 CNS
[16] = test system: ACHN renal
[17] = test system: OVCAR-3 ovarian
[18] = test system: U251 CNS
[19] = test system: HT29 colon
[20] = test system: MALME-3M melanoma
[21] = test system: PC-3 prostate
[22] = test system: OVCAR-5 ovarian
[23] = test system: HCC-2998 colon
[24] = test system: SN12C renal
[25] = test system: RXF 393 renal
[26] = test system: M14 melanoma
[27] = test system: COLO 205 colon
[28] = test system: KM12 colon
[29] = test system: IGROV1 ovarian
[30] = test system: SR leukemia
[31] = test system: K-562 leukemia
[32] = test system: SW-620 colon
[33] = test system: HCT-15 colon
[34] = test system: OVCAR-8 ovarian
[35] = test system: SK-MEL-28 melanoma
[36] = test system: OVCAR-4 ovarian
[37] = test system: UACC-257 melanoma
[38] = test system: UACC-62 melanoma
[39] = test system: NCI-H23 lung
[40] = test system: A498 renal
[41] = test system: HS 578T breast
[42] = test system: T-47D breast
[43] = test system: 786-0 renal
[44] = test system: SF-268 CNS
[45] = test system: HCT-116 colon
[46] = test system: TK-10 renal
[47] = test system: NCI-H460 lung
[48] = test system: HOP-92 NSCLC
[49] = test system: BT-549 breast
[50] = test system: LOX IMVI melanoma
[51] = test system: HL-60(TB) leukemia

## NCCCOc1cc2ccccc2cc1C(=O)NCCOc1nc2ccccc2cc1C(=O)Nc1ccc(Cl)cc1O
[1]
  GI50: 1.33 µM
  TGI: 2.93 µM
[2]
  GI50: 1.31 µM
  TGI: 2.76 µM
[3]
  GI50: 1.87 µM
  TGI: 3.57 µM
[4]
  GI50: 1.34 µM
  TGI: 2.84 µM
[5]
  GI50: 1.12 µM
  TGI: 2.34 µM
[6]
  GI50: 0.721 µM
  TGI: 2.37 µM
[7]
  GI50: 1 µM
  TGI: 2.37 µM
[8]
  GI50: 1.34 µM
  TGI: 2.63 µM
[9]
  GI50: 1.19 µM
  TGI: 2.82 µM
[10]
  GI50: 0.295 µM
  TGI: 1.92 µM
[11]
  GI50: 1.73 µM
  TGI: 3.35 µM
[12]
  GI50: 1.17 µM
  TGI: 2.46 µM
[13]
  GI50: 1.06 µM
  TGI: 2.47 µM
[14]
  GI50: 1.34 µM
  TGI: 2.67 µM
[15]
  GI50: 1.1 µM
  TGI: 2.3 µM
[16]
  GI50: 1.07 µM
  TGI: 2.3 µM
[17]
  GI50: 0.882 µM
  TGI: 2.25 µM
[18]
  GI50: 1.05 µM
  TGI: 2.41 µM
[19]
  GI50: 1.5 µM
  TGI: 3.12 µM
[20]
  GI50: 1.28 µM
  TGI: 2.79 µM
[21]
  GI50: 0.269 µM
  TGI: 1.99 µM
[22]
  GI50: 1.5 µM
  TGI: 2.83 µM
[23]
  GI50: 1.67 µM
  TGI: 3.18 µM
[24]
  GI50: 1.33 µM
  TGI: 2.74 µM
[25]
  GI50: 1.53 µM
  TGI: 3.02 µM
[26]
  GI50: 1.31 µM
  TGI: 2.75 µM
[27]
  GI50: 1.1 µM
  TGI: 2.38 µM
[28]
  GI50: 1.05 µM
  TGI: 2.4 µM
[29]
  GI50: 1.22 µM
  TGI: 2.8 µM
[30]
  GI50: 0.224 µM
  TGI: 2.11 µM
[31]
  GI50: 0.544 µM
  TGI: 3.3 µM
[32]
  GI50: 0.0829 µM
  TGI: 2.06 µM
[33]
  GI50: 0.818 µM
  TGI: 2.11 µM
[34]
  GI50: 1.25 µM
  TGI: 3.1 µM
[35]
  GI50: 1.3 µM
  TGI: 2.57 µM
[36]
  GI50: 0.0755 µM
  TGI: 1.82 µM
[37]
  GI50: 0.678 µM
  TGI: 2.11 µM
[38]
  GI50: 0.27 µM
  TGI: 2.03 µM
[39]
  GI50: 0.941 µM
  TGI: 2.41 µM
[40]
  GI50: 0.342 µM
  TGI: 3.45 µM
[41]
  GI50: 1.63 µM
  TGI: 3.89 µM
[42]
  GI50: 0.517 µM
  TGI: 2.39 µM
[43]
  GI50: 1.17 µM
  TGI: 2.49 µM
[44]
  GI50: 1.12 µM
  TGI: 2.69 µM
[45]
  GI50: 0.252 µM
  TGI: 2.17 µM
[46]
  GI50: 1.3 µM
  TGI: 2.76 µM
[47]
  GI50: 0.482 µM
  TGI: 1.87 µM
[48]
  GI50: 0.126 µM
  TGI: 1.32 µM
[49]
  GI50: 1.37 µM
  TGI: 3.03 µM
[50]
  GI50: 1.07 µM
  TGI: 2.39 µM
[51]
  GI50: 0.621 µM
  TGI: 2.37 µM
